Test [1] has as its target T1, gastric inhibitory peptide receptor (GIPR) (Homo sapiens, UniProt P48546).
T1 sequence (P48546 22-466): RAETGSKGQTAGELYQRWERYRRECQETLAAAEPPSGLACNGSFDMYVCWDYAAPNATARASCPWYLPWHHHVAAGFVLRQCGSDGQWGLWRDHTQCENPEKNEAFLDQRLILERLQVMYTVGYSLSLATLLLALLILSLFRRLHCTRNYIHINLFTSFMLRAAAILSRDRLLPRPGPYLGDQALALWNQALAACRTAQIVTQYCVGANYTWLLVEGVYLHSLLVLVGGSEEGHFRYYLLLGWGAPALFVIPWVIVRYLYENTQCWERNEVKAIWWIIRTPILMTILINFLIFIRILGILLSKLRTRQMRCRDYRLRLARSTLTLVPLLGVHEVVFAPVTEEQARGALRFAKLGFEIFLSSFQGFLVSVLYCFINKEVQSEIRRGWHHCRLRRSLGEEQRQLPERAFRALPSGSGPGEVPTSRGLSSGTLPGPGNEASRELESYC
In words: cAMP pharmacological functional assay in presence of casein, hGIPR. Type of test: cell-based. The note with it: HEK293 cells expressing hGIPR, 0.1% Casein, geometric mean; read-out: hGIPR cAMP Rel EC50 nM (SEM, n).

Test [2] deals with T2, human GLP-1R (Homo sapiens, UniProt P43220). Kind of test: GLP-1R HEK293 cell membrane [35S]GTPγS binding assay. Type of test: biochemical. Set-up: expressed in transfected cells; host or cells: HEK293 cells expressing human GLP-1R; membranes. The settings on record: HEK293 cell membranes expressing human GLP-1R, [35S]GTPγS binding; read-out: hGLP1R GTPgS Rel EC50 nM (SEM, n). The essentials:
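Agonist-driven Gαs activation read as [35S]GTPγS ([…]) binding to receptor-expressing HEK293 membranes, 30 min at room temperature, pH 7.4. Detection by anti-Gαs immunocapture on scintillation beads; EC50 derived from four-parameter logistic concentration-response fit.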

In test [3] the target is T2, human GLP-1R. In words: GLP-1R CHO cell β-arrestin recruitment assay. The settings on record: for EC50: CHO-K1 cells, PathHunter β-arrestin-2 recruitment, 0.1% casein, read-out: hGLP1R B-Arrestin2 Rel EC50 uM (SEM, n); for hGLP1R B-Arrestin2 % Top: normalized to GLP-1 maximum control. Details: host or cells: CHO-K1 PathHunter cells, assay-ready frozen. The class given is cell-based. The essentials:
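Peptide-induced β-arrestin-2 recruitment measured by enzyme-fragment complementation luminescence after 90 min at 37 °C plus 60 min detection at RT.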

The target of test [4] is human GLP-1 receptor (GLP-1R) (Homo sapiens, UniProt P43220). In words: cAMP pharmacological functional assay in presence of casein, hGLP-1R. The class given is cell-based. The settings on record: HEK293 cells expressing hGLP-1R, 0.1% Casein, geometric mean; read-out: hGLP1R cAMP Rel EC50 nM (SEM, n).
human GLP-1 receptor (GLP-1R), sequence (P43220 24-463): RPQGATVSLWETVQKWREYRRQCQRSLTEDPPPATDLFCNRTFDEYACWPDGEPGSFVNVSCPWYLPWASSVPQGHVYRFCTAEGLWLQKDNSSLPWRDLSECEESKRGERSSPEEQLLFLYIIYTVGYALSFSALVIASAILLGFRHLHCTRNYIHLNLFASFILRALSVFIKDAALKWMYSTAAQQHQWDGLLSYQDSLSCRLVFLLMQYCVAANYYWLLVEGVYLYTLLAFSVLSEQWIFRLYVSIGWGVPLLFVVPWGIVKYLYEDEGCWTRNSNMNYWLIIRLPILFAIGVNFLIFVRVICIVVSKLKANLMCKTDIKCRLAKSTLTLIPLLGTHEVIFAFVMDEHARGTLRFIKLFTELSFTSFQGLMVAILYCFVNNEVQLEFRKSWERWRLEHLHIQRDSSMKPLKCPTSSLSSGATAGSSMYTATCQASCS

Numbered stars: 1 amine (or outer) side, 2 acyl side, 3 side chain; on linkers, the order of the positions; unused ones are H or OH. Square brackets hold non-standard residues; d marks the D form. Side chains are listed from the residue outwards. Peptide text beside a SMILES is read from it. * marks the point of attachment. C20 diacid = O=C(O)CCCCCCCCCCCCCCCCCCC(=O)*; C18 diacid = O=C(O)CCCCCCCCCCCCCCCCC(=O)*; γGlu = O=C(O)[C@H](CCC(=O)[*:2])N[*:1]; αMeY = C[C@](N)(Cc1ccc(O)cc1)C(=O)O; αMeL = CC(C)C[C@](C)(N)C(=O)O; Orn = NCCC[C@H](N)C(=O)O; AEEA = NCCOCCOCC(=O)O; Aib = CC(C)(N)C(=O)O

In general, EC50 refers to the concentration that produces a half-maximal response.

T2 sequence (P43220 24-463): as above

For `CC[C@H](C)[C@H](NC(=O)[C@H](CC(C)C)NC(=O)[C@H](Cc1ccc(O)cc1)NC(=O)[C@H](CCC(=O)O)NC(=O)[C@@H](NC(=O)[C@H](Cc1ccccc1)NC(=O)[C@H](CCC(=O)O)NC(=O)C(C)(C)NC(=O)[C@H](CCC(N)=O)NC(=O)[C@H](C)NC(=O)[C@H](CCCCNC(=O)COCCOCCNC(=O)COCCOCCNC(=O)CC[C@H](NC(=O)CCCCCCCCCCCCCCCCC(=O)O)C(=O)O)NC(=O)[C@H](CCCN)NC(=O)[C@H](CC(=O)O)NC(=O)[C@H](CC(C)C)NC(=O)[C@](C)(CC(C)C)NC(=O)[C@@H](NC(=O)[C@H](CO)NC(=O)[C@H](Cc1ccc(O)cc1)NC(=O)[C@H](CC(=O)O)NC(=O)[C@H](CO)NC(=O)[C@@H](NC(=O)[C@H](Cc1ccccc1)NC(=O)[C@@H](NC(=O)CNC(=O)[C@H](CCC(=O)O)NC(=O)C(C)(C)NC(=O)[C@H](N)Cc1ccc(O)cc1)[C@@H](C)O)[C@@H](C)O)[C@@H](C)CC)[C@@H](C)CC)C(=O)N[C@@H](C)C(=O)NCC(=O)NCC(=O)N1CCC[C@H]1C(=O)N[C@@H](CO)C(=O)N[C@@H](CO)C(=O)NCC(=O)N[C@@H](C)C(=O)N1CCC[C@H]1C(=O)N1CCC[C@H]1C(=O)N1CCC[C@H]1C(=O)N[C@@H](CO)C(N)=O` [Example 368] (H-[dY][Aib]EGTFTSDYSI[αMeL]LD[Orn]K([AEEA-AEEA-γGlu-C18 diacid])AQ[Aib]EFIEYLIAGGPSSGAPPPS-NH2), the concentration giving a half-maximal response (EC50) in test [1] stood at 0.0757 nM; on human GLP-1R [2], 0.495 nM; on human GLP-1R [3], 0.0479 µM; in test [4], 0.108 nM. Further, the “hGLP1R B-Arrestin2 % Top” value on human GLP-1R [3] stood at 21.3%.

Consider `CC[C@H](C)[C@H](NC(=O)[C@H](CC(C)C)NC(=O)[C@H](Cc1ccc(O)cc1)NC(=O)[C@H](CCC(=O)O)NC(=O)[C@@H](NC(=O)[C@H](Cc1ccccc1)NC(=O)[C@H](CC(=O)O)NC(=O)C(C)(C)NC(=O)[C@H](CCC(N)=O)NC(=O)[C@H](C)NC(=O)[C@H](CCCCNC(=O)COCCOCCNC(=O)COCCOCCNC(=O)CC[C@H](NC(=O)CCCCCCCCCCCCCCCCCCC(=O)O)C(=O)O)NC(=O)[C@H](CCCN)NC(=O)[C@H](CC(=O)O)NC(=O)[C@H](CC(C)C)NC(=O)[C@](C)(CC(C)C)NC(=O)[C@@H](NC(=O)[C@H](CO)NC(=O)[C@H](Cc1ccc(O)cc1)NC(=O)[C@H](CC(=O)O)NC(=O)[C@H](CO)NC(=O)[C@@H](NC(=O)[C@H](Cc1ccccc1)NC(=O)[C@@H](NC(=O)CNC(=O)[C@H](CCC(=O)O)NC(=O)C(C)(C)NC(=O)[C@H](N)Cc1ccc(O)cc1)[C@@H](C)O)[C@@H](C)O)[C@@H](C)CC)[C@@H](C)CC)C(=O)N[C@@H](C)C(=O)NCC(=O)NCC(=O)N1CCC[C@H]1C(=O)N[C@@H](CO)C(=O)N[C@@H](CO)C(=O)NCC(=O)N[C@@H](C)C(=O)N1CCC[C@H]1C(=O)N1CCC[C@H]1C(=O)N1CCC[C@H]1C(=O)N[C@@H](CO)C(N)=O` [Example 369] (H-[dY][Aib]EGTFTSDYSI[αMeL]LD[Orn]K([AEEA-AEEA-γGlu-C20 diacid])AQ[Aib]DFIEYLIAGGPSSGAPPPS-NH2; N-terminus assumed), for which the EC50 in test [1] was 0.166 nM; at human GLP-1R [2], 0.381 nM; at human GLP-1R [3] it was 0.0414 µM; in test [4], 0.101 nM. For the same compound, the “hGLP1R B-Arrestin2 % Top” value at human GLP-1R [3] stood at 19.9%.

For `CC[C@H](C)[C@H](NC(=O)[C@H](CC(C)C)NC(=O)[C@H](Cc1ccc(O)cc1)NC(=O)[C@H](CCC(=O)O)NC(=O)[C@@H](NC(=O)[C@H](Cc1ccccc1)NC(=O)[C@H](CCC(=O)O)NC(=O)C(C)(C)NC(=O)[C@H](CCC(N)=O)NC(=O)[C@H](C)NC(=O)[C@H](CCCCNC(=O)COCCOCCNC(=O)COCCOCCNC(=O)CC[C@H](NC(=O)CCCCCCCCCCCCCCCCCCC(=O)O)C(=O)O)NC(=O)[C@H](CCCN)NC(=O)[C@H](CC(=O)O)NC(=O)[C@H](CC(C)C)NC(=O)[C@](C)(CC(C)C)NC(=O)[C@@H](NC(=O)[C@H](CO)NC(=O)[C@H](Cc1ccc(O)cc1)NC(=O)[C@H](CC(=O)O)NC(=O)[C@H](CO)NC(=O)[C@@H](NC(=O)[C@H](Cc1ccccc1)NC(=O)[C@@H](NC(=O)CNC(=O)[C@H](CCC(=O)O)NC(=O)C(C)(C)NC(=O)[C@H](N)Cc1ccc(O)cc1)[C@@H](C)O)[C@@H](C)O)[C@@H](C)CC)[C@@H](C)CC)C(=O)N[C@@H](C)C(=O)NCC(=O)NCC(=O)N1CCC[C@H]1C(=O)N[C@@H](CO)C(=O)N[C@@H](CO)C(=O)NCC(N)=O` [Example 370] (H-[dY][Aib]EGTFTSDYSI[αMeL]LD[Orn]K([AEEA-AEEA-γGlu-C20 diacid])AQ[Aib]EFIEYLIAGGPSSG-NH2), the EC50 amounted to 0.117 nM in test [1], 0.428 nM at human GLP-1R [2], 0.0099 µM on human GLP-1R [3] and 0.186 nM in test [4]. On human GLP-1R [3], the “hGLP1R B-Arrestin2 % Top” value is reported as 23.0%.

`CC[C@H](C)[C@H](NC(=O)[C@H](CC(C)C)NC(=O)[C@H](Cc1ccc(O)cc1)NC(=O)[C@H](CCC(=O)O)NC(=O)[C@@H](NC(=O)[C@H](Cc1ccccc1)NC(=O)[C@H](CCC(=O)O)NC(=O)C(C)(C)NC(=O)[C@H](CCC(N)=O)NC(=O)[C@H](C)NC(=O)[C@H](CCCCNC(=O)COCCOCCNC(=O)CC[C@H](NC(=O)CCCCCCCCCCCCCCCCCCC(=O)O)C(=O)O)NC(=O)[C@H](CCCN)NC(=O)[C@H](CC(=O)O)NC(=O)[C@H](CC(C)C)NC(=O)[C@](C)(CC(C)C)NC(=O)[C@@H](NC(=O)[C@H](CO)NC(=O)[C@H](Cc1ccc(O)cc1)NC(=O)[C@H](CC(=O)O)NC(=O)[C@H](CO)NC(=O)[C@@H](NC(=O)[C@H](Cc1ccccc1)NC(=O)[C@@H](NC(=O)CNC(=O)[C@H](CCC(=O)O)NC(=O)C(C)(C)NC(=O)[C@H](N)Cc1ccc(O)cc1)[C@@H](C)O)[C@@H](C)O)[C@@H](C)CC)[C@@H](C)CC)C(=O)N[C@@H](C)C(=O)NCC(=O)NCC(=O)N1CCC[C@H]1C(=O)N[C@@H](CO)C(=O)N[C@@H](CO)C(=O)NCC(=O)N[C@@H](C)C(=O)N1CCC[C@H]1C(=O)N1CCC[C@H]1C(=O)N1CCC[C@H]1C(=O)N[C@@H](CO)C(N)=O` [Example 371] (H-[dY][Aib]EGTFTSDYSI[αMeL]LD[Orn]K([AEEA-γGlu-C20 diacid])AQ[Aib]EFIEYLIAGGPSSGAPPPS-NH2): the EC50 in test [1] is 0.135 nM; at human GLP-1R [2], 0.27 nM; at human GLP-1R [3], 0.0142 µM; in test [4], 0.132 nM. For the same compound, the “hGLP1R B-Arrestin2 % Top” value at human GLP-1R [3] is 21.7%.

Take `CC[C@H](C)[C@H](NC(=O)[C@H](CC(C)C)NC(=O)[C@](C)(Cc1ccc(O)cc1)NC(=O)[C@H](CCC(=O)O)NC(=O)[C@@H](NC(=O)[C@H](Cc1ccccc1)NC(=O)[C@H](CCC(=O)O)NC(=O)C(C)(C)NC(=O)[C@H](CCC(N)=O)NC(=O)[C@H](C)NC(=O)[C@H](CCCCNC(=O)COCCOCCNC(=O)CC[C@H](NC(=O)CCCCCCCCCCCCCCCCCCC(=O)O)C(=O)O)NC(=O)[C@H](CCCCN)NC(=O)[C@H](CC(=O)O)NC(=O)[C@H](CC(C)C)NC(=O)[C@](C)(CC(C)C)NC(=O)[C@@H](NC(=O)[C@H](CO)NC(=O)[C@H](Cc1ccc(O)cc1)NC(=O)[C@H](CC(=O)O)NC(=O)[C@H](CO)NC(=O)[C@@H](NC(=O)[C@H](Cc1ccccc1)NC(=O)[C@@H](NC(=O)CNC(=O)[C@H](CCC(=O)O)NC(=O)C(C)(C)NC(=O)[C@H](N)Cc1ccc(O)cc1)[C@@H](C)O)[C@@H](C)O)[C@@H](C)CC)[C@@H](C)CC)C(=O)N[C@@H](C)C(=O)NCC(=O)NCC(=O)N1CCC[C@H]1C(=O)N[C@@H](CO)C(=O)N[C@@H](CO)C(=O)NCC(=O)N[C@@H](C)C(=O)N1CCC[C@H]1C(=O)N1CCC[C@H]1C(=O)N1CCC[C@H]1C(=O)N[C@@H](CO)C(N)=O` [Example 372] (H-[dY][Aib]EGTFTSDYSI[αMeL]LDKK([AEEA-γGlu-C20 diacid])AQ[Aib]EFIE[αMeY]LIAGGPSSGAPPPS-NH2): the EC50 is 0.0781 nM in test [1], 0.379 nM on human GLP-1R [2], 0.00981 µM at human GLP-1R [3] and 0.365 nM in test [4]. Further, the “hGLP1R B-Arrestin2 % Top” value at human GLP-1R [3] stood at 32.9%.

Values taken from US12252524B2, “GIP/GLP1 co-agonist compounds” (Eli Lilly and Company, priority 2018, dated 2025).
